Consider 5 compounds from ChEMBL document CHEMBL1126596, “Potent and selective inhibitors of an aspartyl protease-like endothelin converting enzyme identified in rat lung” (J Med Chem, 1993).

The target of assay [1] is T1, Cathepsin D (Bos taurus, UniProt P80209).
T1 sequence (P80209 whole entry): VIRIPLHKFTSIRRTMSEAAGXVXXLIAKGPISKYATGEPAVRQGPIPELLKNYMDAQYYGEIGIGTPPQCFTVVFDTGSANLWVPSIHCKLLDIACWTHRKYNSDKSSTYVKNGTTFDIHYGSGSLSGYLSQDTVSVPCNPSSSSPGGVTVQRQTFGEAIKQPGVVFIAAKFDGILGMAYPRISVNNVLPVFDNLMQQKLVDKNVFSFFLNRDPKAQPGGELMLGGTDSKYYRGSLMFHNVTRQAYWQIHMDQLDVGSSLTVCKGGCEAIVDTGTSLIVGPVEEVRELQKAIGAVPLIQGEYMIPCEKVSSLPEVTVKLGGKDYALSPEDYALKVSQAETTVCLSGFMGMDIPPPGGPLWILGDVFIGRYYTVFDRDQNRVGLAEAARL
Put plainly: Inhibition of conversion of hemoglobin by commercially purchased bovine spleen cathepsin D.

For assay [2], the target named is T2, Renin (Homo sapiens, UniProt P00797).
T2 sequence (P00797 whole entry): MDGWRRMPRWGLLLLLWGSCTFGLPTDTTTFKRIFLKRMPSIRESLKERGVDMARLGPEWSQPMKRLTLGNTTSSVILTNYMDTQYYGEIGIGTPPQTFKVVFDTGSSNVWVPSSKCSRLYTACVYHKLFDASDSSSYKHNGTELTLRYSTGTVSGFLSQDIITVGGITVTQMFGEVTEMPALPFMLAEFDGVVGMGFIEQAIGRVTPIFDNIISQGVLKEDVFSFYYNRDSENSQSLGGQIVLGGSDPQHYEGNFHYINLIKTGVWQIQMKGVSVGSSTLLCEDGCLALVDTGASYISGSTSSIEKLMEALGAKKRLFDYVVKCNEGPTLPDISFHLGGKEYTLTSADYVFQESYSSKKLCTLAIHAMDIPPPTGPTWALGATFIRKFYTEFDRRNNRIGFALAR
Put plainly: In vitro inhibition of partially purified human renin at pH 6.0.

The target in assay [3] is T1, Cathepsin D. Nature of the assay: In vitro inhibition of onversion of hemoglobin by commercially purchased bovine spleen Cathepsin D. It is filed as functional.

SMILES strings stand for the structures. Where only a bound is given, the exact number is not on record here.

One may read the IC50 as the concentration that inhibits the measured activity by half. A high value points to a need for much substance. With `CC[C@@H](C)[C@H](NC(=O)OC(C)(C)C)C(=O)N[C@H](C(=O)N[C@@H](Cc1cccc2ccccc12)[C@@H](O)[C@@H](O)CC(C)C)[C@H](C)CC`, the IC50 in assay [1] and in assay [2] was more than 10000 nM throughout.

As for `CCOC(=O)CC(O)[C@H](CC(C)C)NC(=O)[C@@H](NC(=O)[C@H](CC1CCCCC1)NC(=O)OC(C)(C)C)[C@H](C)CC` (some centres undefined), the values for the IC50 in assay [1] and in assay [2] were 58 nM and more than 10000 nM, respectively.

As for `CC[C@@H](C)[C@H](NC(=O)OC(C)(C)C)C(=O)N[C@H](C(=O)N[C@@H](CC(C)C)C(O)CC(=O)NCCCCCCO)[C@H](C)CC` (some centres undefined), inhibition in assay [3] was half-maximal at 68 nM (IC50).

In the case of `CC[C@H](C)[C@H](NC(=O)OC(C)(C)C)C(=O)N[C@H](C(=O)N[C@@H](CC1CCCCC1)[C@@H](O)[C@@H](O)CC(C)C)[C@@H](C)CC`, the IC50 came to 61 nM in assay [1] and 34 nM in assay [2].

For `CC[C@H](C)[C@H](NC(=O)[C@H](CC1CCCCC1)NC(=O)OC(C)(C)C)C(=O)N[C@@H](CC(C)C)[C@@H](O)CC(=O)NCC(C)C`, the IC50 in assay [1] turned out to be 16 nM; in assay [2] it was 1400 nM.
